{"source": "the supplement of paper PMC9663587", "key": {"[1]": {"compound": "C=CCn1c(=O)c2cnc(Nc3ccc(N4CCN(C)CC4)cc3)nc2n1-c1cccc(C(C)(C)O)n1 [AZD1775]"}, "[2]": {"compound": "COc1cc2c(Oc3ccc4[nH]c(C)cc4c3F)ncnc2cc1OCCCN1CCCC1 [Cediranib/AZD2171]"}, "[3]": {"compound": "CN1CCN(CCOc2cc(OC3CCOCC3)c3c(Nc4c(Cl)ccc5c4OCO5)ncnc3c2)CC1 [Saracatinib/AZD0530]"}, "[4]": {"compound": "CCCCOc1c(C(=O)c2c(F)cc(C)cc2F)c[nH]c2nncc1-2"}, "[5]": {"compound": "Cc1nc(NC(=O)N2CCC[C@H]2C(N)=O)sc1-c1ccnc(C(C)(C)C(F)(F)F)c1 [Alpelisib/BYL719]"}, "[6]": {"compound": "CC(=O)Nc1cccc(-n2c(=O)n(C3CC3)c(=O)c3c(Nc4ccc(I)cc4F)n(C)c(=O)c(C)c32)c1"}, "[7]": {"compound": "COc1ccc2c(c1)[C@]1(C[C@H]1c1ccc3c(/C=C/c4ccc(CN5C[C@@H](C)O[C@@H](C)C5)cc4)n[nH]c3c1)C(=O)N2"}, "[8]": {"compound": "CC(C)Nc1cc(-c2c[nH]c(C(=O)N[C@H](CO)c3cccc(Cl)c3)c2)c(Cl)cn1 [BVD523]"}, "[9]": {"compound": "CO[C@@H](C)Cn1c(=O)n(C)c2cnc3ccc(-c4cncc(C(C)(C)O)c4)cc3c21"}, "[10]": {"compound": "T1, CN(C)C/C=C/C(=O)Nc1ccc(C(=O)Nc2cccc(Nc3ncc(Cl)c(-c4c[nH]c5ccccc45)n3)c2)cc1 [THZ1]"}, "[11]": {"compound": "T2, CN(C)C/C=C/C(=O)Nc1ccc(C(=O)N2CCC[C@@H](Nc3ncc(Cl)c(-c4c[nH]c5ccccc45)n3)C2)cc1 [THZ531]"}, "[12]": {"compound": "CNCc1ccc(-c2[nH]c3cc(F)cc4c3c2CCNC4=O)cc1 [Rucaparib]"}, "[13]": {"compound": "CN(C)C(=O)c1cc2cnc(Nc3ccc(N4CCNCC4)cn3)nc2n1C1CCCC1 [LEE011/Ribociclib]", "assay": "increase in dead-cell fraction, 72 h; higher = more death;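 also: breast cancer cell lines in 384-well plates, stained with Hoechst plus LIVE/DEAD far red dye and imaged, cells above an LDR intensity threshold counted dead, Hoechst-negative corpses included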"}, "[14]": {"compound": "CC(=O)c1c(C)c2cnc(Nc3ccc(N4CCN(CCOCCOCCOCCNC(=O)COc5cccc6c5C(=O)N(C5CCC(=O)NC5=O)C6=O)CC4)cn3)nc2n(C2CCCC2)c1=O [BSJ-03-123]", "assay": "increase in dead-cell fraction, 72 h; higher = more death"}, "[15]": {"compound": "CCc1cnn2c(NCc3ccc[n+]([O-])c3)cc(N3CCCC[C@H]3CCO)nc12", "assay": "increase in dead-cell fraction, 72 h; higher = more death"}, "[16]": {"compound": "CC(=O)c1c(C)c2cnc(Nc3ccc(N4CCNCC4)cn3)nc2n(C2CCCC2)c1=O", "assay": "increase in dead-cell fraction, 72 h; higher = more death"}, "[17]": {"compound": "C=CC(=O)Nc1ccc(C(=O)Nc2[nH]nc3c2CN(C(=O)N[C@H](CN(C)C)c2ccccc2)C3(C)C)cc1 [YKL-5-124]", "assay": "increase in dead-cell fraction, 72 h; higher = more death"}, "[18]": {"compound": "T1, THZ1", "assay": "increase in dead-cell fraction, 72 h; higher = more death"}, "[19]": {"compound": "T2, THZ531", "assay": "increase in dead-cell fraction, 72 h; higher = more death"}, "[20]": {"compound": "CCOc1cc2ncc(C#N)c(Nc3ccc(OCc4ccccn4)c(Cl)c3)c2cc1NC(=O)/C=C/CN(C)C [Neratinib/HKI272]", "assay": "increase in dead-cell fraction, 72 h; higher = more death"}}}
{"cell line": "SUM52PE", "values": [{"measurement": "GR50, 72 h", "setting": "[1]", "result": 4.37, "unit": "µM"}, {"measurement": "GR50, 72 h", "setting": "[2]", "result": 0.17, "unit": "µM"}, {"measurement": "GR50, 72 h", "setting": "[3]", "result": 9.64, "unit": "µM"}, {"measurement": "GR50, 72 h", "setting": "[4]", "result": 0.112, "unit": "µM"}, {"measurement": "GR50, 72 h", "setting": "[5]", "result": 2.74, "unit": "µM"}, {"measurement": "GR50, 72 h", "setting": "[6]", "result": "> 1", "unit": "µM"}, {"measurement": "GR50, 72 h", "setting": "[7]", "result": 0.00559, "unit": "µM"}, {"measurement": "GR50, 72 h", "setting": "[8]", "result": 5.04, "unit": "µM"}, {"measurement": "GR50, 72 h", "setting": "[9]", "result": 0.0079, "unit": "µM"}, {"measurement": "GR50, 72 h", "setting": "[10]", "result": 0.0156, "unit": "µM"}, {"measurement": "GR50, 72 h", "setting": "[11]", "result": 0.149, "unit": "µM"}, {"measurement": "GR50, 72 h", "setting": "[12]", "result": "> 10", "unit": "µM"}, {"measurement": "increase in dead-cell fraction", "setting": "[13]; 0.001 µM", "result": 0.0005}, {"measurement": "increase in dead-cell fraction", "setting": "[13]; 0.003162 µM", "result": 0.0031}, {"measurement": "increase in dead-cell fraction", "setting": "[13]; 0.01 µM", "result": -0.0001}, {"measurement": "increase in dead-cell fraction", "setting": "[13]; 0.03162 µM", "result": 0.0002}, {"measurement": "increase in dead-cell fraction", "setting": "[13]; 0.1 µM", "result": -0.0001}, {"measurement": "increase in dead-cell fraction", "setting": "[13]; 0.3162 µM", "result": 0.0042}, {"measurement": "increase in dead-cell fraction", "setting": "[13]; 1 µM", "result": 0.0047}, {"measurement": "increase in dead-cell fraction", "setting": "[13]; 3.162 µM", "result": 0.0047}, {"measurement": "increase in dead-cell fraction", "setting": "[13]; 10 µM", "result": 0.0071}, {"measurement": "increase in dead-cell fraction", "setting": "[14]; 0.001 µM", "result": -0.0027}, {"measurement": "increase in dead-cell fraction", "setting": "[14]; 0.003162 µM", "result": 0.001}, {"measurement": "increase in dead-cell fraction", "setting": "[14]; 0.01 µM", "result": 0.0043}, {"measurement": "increase in dead-cell fraction", "setting": "[14]; 0.03162 µM", "result": 0.0027}, {"measurement": "increase in dead-cell fraction", "setting": "[14]; 0.1 µM", "result": 0.0025}, {"measurement": "increase in dead-cell fraction", "setting": "[14]; 0.3162 µM", "result": 0.0035}, {"measurement": "increase in dead-cell fraction", "setting": "[14]; 1 µM", "result": 0.0021}, {"measurement": "increase in dead-cell fraction", "setting": "[14]; 3.162 µM", "result": 0.0075}, {"measurement": "increase in dead-cell fraction", "setting": "[14]; 10 µM", "result": 0.025}, {"measurement": "increase in dead-cell fraction", "setting": "[15]; 0.0001 µM", "result": 0.0037}, {"measurement": "increase in dead-cell fraction", "setting": "[15]; 0.0003162 µM", "result": 0.0003}, {"measurement": "increase in dead-cell fraction", "setting": "[15]; 0.001 µM", "result": 0.0018}, {"measurement": "increase in dead-cell fraction", "setting": "[15]; 0.003162 µM", "result": 0.0012}, {"measurement": "increase in dead-cell fraction", "setting": "[15]; 0.01 µM", "result": 0.006}, {"measurement": "increase in dead-cell fraction", "setting": "[15]; 0.03162 µM", "result": 0.101}, {"measurement": "increase in dead-cell fraction", "setting": "[15]; 0.1 µM", "result": 0.333}, {"measurement": "increase in dead-cell fraction", "setting": "[15]; 0.3162 µM", "result": 0.419}, {"measurement": "increase in dead-cell fraction", "setting": "[15]; 1 µM", "result": 0.155}, {"measurement": "increase in dead-cell fraction", "setting": "[16]; 0.0003162 µM", "result": 0.0036}, {"measurement": "increase in dead-cell fraction", "setting": "[16]; 0.001 µM", "result": -0.0018}, {"measurement": "increase in dead-cell fraction", "setting": "[16]; 0.003162 µM", "result": -0.0008}, {"measurement": "increase in dead-cell fraction", "setting": "[16]; 0.01 µM", "result": 0.0002}, {"measurement": "increase in dead-cell fraction", "setting": "[16]; 0.03162 µM", "result": -0.0011}, {"measurement": "increase in dead-cell fraction", "setting": "[16]; 0.1 µM", "result": 0.0033}, {"measurement": "increase in dead-cell fraction", "setting": "[16]; 0.3162 µM", "result": 0.0047}, {"measurement": "increase in dead-cell fraction", "setting": "[16]; 1 µM", "result": 0.006}, {"measurement": "increase in dead-cell fraction", "setting": "[16]; 3.162 µM", "result": 0.0091}, {"measurement": "increase in dead-cell fraction", "setting": "[17]; 0.001 µM", "result": 0.0072}, {"measurement": "increase in dead-cell fraction", "setting": "[17]; 0.003162 µM", "result": 0.0054}, {"measurement": "increase in dead-cell fraction", "setting": "[17]; 0.01 µM", "result": 0.0099}, {"measurement": "increase in dead-cell fraction", "setting": "[17]; 0.03162 µM", "result": 0.0108}, {"measurement": "increase in dead-cell fraction", "setting": "[17]; 0.1 µM", "result": 0.013}, {"measurement": "increase in dead-cell fraction", "setting": "[17]; 0.3162 µM", "result": 0.0189}, {"measurement": "increase in dead-cell fraction", "setting": "[17]; 1 µM", "result": 0.009}, {"measurement": "increase in dead-cell fraction", "setting": "[17]; 3.162 µM", "result": 0.0202}, {"measurement": "increase in dead-cell fraction", "setting": "[17]; 10 µM", "result": 0.0275}, {"measurement": "increase in dead-cell fraction", "setting": "[18]; 0.0001 µM", "result": 0.0004}, {"measurement": "increase in dead-cell fraction", "setting": "[18]; 0.0003162 µM", "result": 0.0008}, {"measurement": "increase in dead-cell fraction", "setting": "[18]; 0.001 µM", "result": 0.0052}, {"measurement": "increase in dead-cell fraction", "setting": "[18]; 0.003162 µM", "result": 0.0023}, {"measurement": "increase in dead-cell fraction", "setting": "[18]; 0.01 µM", "result": 0.002}, {"measurement": "increase in dead-cell fraction", "setting": "[18]; 0.03162 µM", "result": 0.061}, {"measurement": "increase in dead-cell fraction", "setting": "[18]; 0.1 µM", "result": 0.093}, {"measurement": "increase in dead-cell fraction", "setting": "[18]; 0.3162 µM", "result": 0.137}, {"measurement": "increase in dead-cell fraction", "setting": "[18]; 1 µM", "result": 0.513}, {"measurement": "increase in dead-cell fraction", "setting": "[19]; 0.0001 µM", "result": -0.0007}, {"measurement": "increase in dead-cell fraction", "setting": "[19]; 0.0003162 µM", "result": 0.0017}, {"measurement": "increase in dead-cell fraction", "setting": "[19]; 0.001 µM", "result": -0.0005}, {"measurement": "increase in dead-cell fraction", "setting": "[19]; 0.003162 µM", "result": -0.0003}, {"measurement": "increase in dead-cell fraction", "setting": "[19]; 0.01 µM", "result": -0.0005}, {"measurement": "increase in dead-cell fraction", "setting": "[19]; 0.03162 µM", "result": 0.0015}, {"measurement": "increase in dead-cell fraction", "setting": "[19]; 0.1 µM", "result": 0.0054}, {"measurement": "increase in dead-cell fraction", "setting": "[19]; 0.3162 µM", "result": 0.0857}, {"measurement": "increase in dead-cell fraction", "setting": "[19]; 1 µM", "result": 0.311}, {"measurement": "increase in dead-cell fraction", "setting": "[20]; 0.0003162 µM", "result": -0.0009}, {"measurement": "increase in dead-cell fraction", "setting": "[20]; 0.001 µM", "result": 0.0018}, {"measurement": "increase in dead-cell fraction", "setting": "[20]; 0.003162 µM", "result": 0.0022}, {"measurement": "increase in dead-cell fraction", "setting": "[20]; 0.01 µM", "result": 0.0007}, {"measurement": "increase in dead-cell fraction", "setting": "[20]; 0.03162 µM", "result": 0.0026}, {"measurement": "increase in dead-cell fraction", "setting": "[20]; 0.1 µM", "result": 0.0033}, {"measurement": "increase in dead-cell fraction", "setting": "[20]; 0.3162 µM", "result": 0.0005}, {"measurement": "increase in dead-cell fraction", "setting": "[20]; 1 µM", "result": 0.0053}, {"measurement": "increase in dead-cell fraction", "setting": "[20]; 3.162 µM", "result": 0.0166}]}
